Experimental data: publication PMC11195807, “Development of a multi-targeted chemotherapeutic approach based on G-quadruplex stabilisation and carbonic anhydrase inhibition” (Journal of Enzyme Inhibition and Medicinal Chemistry, 2024)

Experiments:
GQ structures = assay: BG4 immunofluorescence of GQ foci, hypoxic HeLa cells; format: cell-based; settings: hypoxic HeLa cells (50 μM CoCl2 60 h), 1 µM C-4,2 for 12 h, vs DMSO-treated hypoxic cells
Description: Finally, we investigated C-4,2 capability to impact the formation of GQ structures even in hypoxic HeLa cells.
Figure 7. (A) Representative fields showing G4 foci formation detected by immunofluorescence in HeLa cells pre-treated with 50 μM cobalt (II) chloride hexahydrate for 60 h to induce hypoxia and then exposed to 1 µM C-4,2 or vehicle (0.1% DMSO) for the following 12 h, still in the presence of CoCl2. DMSO-treated normoxic HeLa cells are also shown. Scale bar: 10 µm. Upper panels: the merged channels of BG4-stained GQ structures (magenta) and Hoechst-counterstained nuclei (grey) are reported. Lower panels: enlargements from the pictures in the upper panels. (B) Quantification of the cellular BG4 foci in DMSO-treated normoxic HeLa cells, DMSO-treated hypoxic HeLa cells, and C-4,2-treated hypoxic HeLa cells. An average of 50 cells were screened for each condition. […] The statistical significance was calculated using a one-way ANOVA test on GraphPad Prism 8.0.2 (**: p < 0.01, ****: p < 0.0001).
For the IF experiments in the presence of normal oxygen levels, HeLa cells were seeded on sterile coverslips, in a 24-well plate, at a density of 90,000 cells per well, and incubated overnight. […] From there, the cellular and nuclear foci were segmented, and their number or fluorescence intensity was quantified by using the Image Analysis package of ZEISS ZEN 3.1 software.

HeLa cells = assay: MTT assay, HeLa cells under hypoxic conditions (CoCl2); format: cell-based
Description: Taking into consideration the good cytotoxicity of C-4,2 on cancer cells and its ability to stabilise GQ structures also in the cellular environment, we decided to further evaluate its antitumor potential by testing it under hypoxic conditions, when expression of high amounts of CA IX occurs. To this aim, HeLa cells were pre-treated for 60 h with a non-toxic concentration of cobalt(II) chloride hexahydrate (CoCl2, 50 μM, Figure S14, Supporting Information), which was employed as the chemical inducer of HIF-1α to establish hypoxia[70]^,[71]. After that, HeLa were exposed to increasing concentrations of C-4,2 or vehicle, for the following 12 h, still in the presence of CoCl2. […]
For the MTT experiments in the presence of normal oxygen levels, HeLa cells were seeded in 96-well plates at a density of 15,000 cells per well (culture medium volume – 100 μL/well) and incubated at 37 °C, for 24 h. […] Finally, the optical density of the samples (at 570 nm) was measured on an ELx800 Absorbance Microplate Reader (BioTek Instruments, Inc., Winooski, VT, USA). The percentage (%) of cell survival for each condition was calculated by using the following equation: % cell survival=OD− OD0/ODCONTROL− OD0×100 where OD is the optical density of the sample, OD0 is the optical density of the background signal, and ODCONTROL is the optical density of the control sample (cells treated with vehicle, 0.5% DMSO). […]

Compound: COc1ccc2cc3[n+](cc2c1OCCCCn1cc(COc2ccc4ccc(=O)oc4c2)nn1)CCc1cc2c(cc1-3)OCO2 [Compound 37, 10-Methoxy-9–(4-(4-(((2-oxo-2H-chromen-7-yl)oxy)methyl)-1H-1,2,3-triazol-1-yl)butoxy)-5,6-dihydro-[1,3]dioxolo[4,5-g]isoquinolino[3,2-a]isoquinolin-7-ium hexafluorophosphate]
- number of detectable GQs (BG4 foci) (GQ structures): remarkable increase
- cytotoxicity compared with co-exposure to equimolar berberine and C (HeLa cells; 12 h, hypoxia (CoCl2)): greater
- IC50 (HeLa cells; Homo sapiens, 60 h pre-treatment with 50 μM CoCl2, then 12 h treatment, hypoxia): 26.5 µM
